Source: the supplement of paper PMC10307832

How the values were obtained:
Test in all cases: relative viability (nuclei count vs DMSO), 5 days (fraction); higher = more cells survive
Sulindac + Linsitinib = compound: CC1=C(CC(=O)O)c2cc(F)ccc2/C1=C\c1ccc([S+](C)[O-])cc1 [Sulindac] + C[C@]1(O)C[C@@H](c2nc(-c3ccc4ccc(-c5ccccc5)nc4c3)c3c(N)nccn32)C1 [Linsitinib] (partner 1 µM)
How it was run: (§1)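 Lung cancer cell lines, seeded in 1536-well plates, were treated the following day by pin tool with a single drug or with five library-drug doses (not always all listed) in √10 steps on top of a fixed anchor-drug dose. Cells were fixed and nuclei stained in one step after 5 days, and nuclei were counted. Relative viability is the nuclei count for treated wells divided by that for vehicle wells, reported as medians of duplicate plates.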

[1] = compound: O=c1[nH]cc(F)c(=O)[nH]1 [5-Fluorouracil] + CS(=O)(=O)CCNCc1ccc(-c2ccc3ncnc(Nc4ccc(OCc5cccc(F)c5)c(Cl)c4)c3c2)o1 [Lapatinib] (partner 2 µM)
How it was run: as §1

Sulindac + Decitabine = compound: CC1=C(CC(=O)O)c2cc(F)ccc2/C1=C\c1ccc([S+](C)[O-])cc1 [Sulindac] + Nc1ncn([C@H]2C[C@H](O)[C@@H](CO)O2)c(=O)n1 [Decitabine] (partner 2 µM)
How it was run: as §1

[2] = compound: O=c1[nH]cc(F)c(=O)[nH]1 [5-Fluorouracil] + CC(C)C[C@H](NC(=O)[C@H](Cc1ccccc1)NC(=O)c1cnccn1)B(O)O [Bortezomib] (partner 0.002 µM)
How it was run: as §1

Cell Line	relative viability (Sulindac + Linsitinib; first compound 0.08 µM)	relative viability (Sulindac + Linsitinib; first compound 0.253 µM)	relative viability (Sulindac + Linsitinib; first compound 0.8 µM)	relative viability (Sulindac + Linsitinib; first compound 2.53 µM)	relative viability (Sulindac + Linsitinib; first compound 8 µM)	relative viability ([1]; first compound 0.02 µM)	relative viability ([1]; first compound 0.2 µM)	relative viability ([1]; first compound 0.6325 µM)	relative viability ([1]; first compound 2 µM)	relative viability (Sulindac + Decitabine; first compound 0.08 µM)	relative viability (Sulindac + Decitabine; first compound 0.253 µM)	relative viability (Sulindac + Decitabine; first compound 0.8 µM)	relative viability (Sulindac + Decitabine; first compound 2.53 µM)	relative viability (Sulindac + Decitabine; first compound 8 µM)	relative viability ([2]; first compound 0.02 µM)	relative viability ([2]; first compound 0.2 µM)	relative viability ([2]; first compound 0.6325 µM)	relative viability ([2]; first compound 2 µM)
HCC-827	0.932	0.939	0.988	0.937	0.967	0.159	0.203	0.191	0.187	0.342	0.31	0.328	0.332	0.291	0.805	1.1	0.733	0.596
HOP-62	0.858	0.937	1.14	1.03	1.16	0.797	1.03	0.986	0.956	0.214	0.222	0.229	0.217	0.246	0.85	0.891	0.859	0.558
IA-LM	0.527	0.681		0.826	0.423	0.812	0.461	0.293	0.352						0.766	0.327	0.193	0.141
LC-2-ad	0.938	0.795	0.816	0.881	0.933	1.05	0.975	0.255	0.264	0.954	0.945	0.57	0.823	0.9	1.01	0.914	0.598	0.276
LCLC-97TM1	0.187	0.167	0.157		0.209	0.693	0.857	0.617	0.272	0.208	0.263	0.225	0.247	0.232	0.53	1.03	0.396	0.12
LCLC-103H	1.18	1.22	0.94	1.04	1.2					0.748	0.787	0.738	0.661	0.729	0.99	1.18	0.931	0.632
LK-2	0.464	0.376	0.532	0.417	0.577	1.17	1.08	0.697	0.535	0.334	0.361	0.277	0.239	0.306				
LOU-NH91	0.877	0.916	0.858	0.933	1.09	0.777	0.83	0.497	0.406	0.776	0.8	0.715	0.798	0.873	0.522	0.559	0.37	0.36
LU99A	0.578	0.524	0.493	0.499	0.659	1.03	1.03	0.77	0.551	1.05	0.806	0.86	0.782	1.17	1.08	1.14	1.01	0.593
NCI-H358	0.777	0.881	0.643	0.661	1.09	0.509	0.508	0.435	0.352	0.235	0.2	0.196	0.186	0.239				
NCI-H441	0.469	0.375	0.48	0.638	0.849					0.255	0.232	0.252	0.245	0.264	0.513	0.408	0.482	0.303
NCI-H522										0.643	0.718	0.652	0.667	0.687				
NCI-H1299	1.14	1.18	0.898	1.02	1.01	1.05	0.978	0.959	0.817						1.07	1.05	1.04	0.959
NCI-H1395	1.09	1.07	0.993	0.948	1.18	0.724	1.12	1.01	0.825	0.726	0.689	0.664	0.659	0.832				
NCI-H1563	1.13	1.15	1.03	1.15	1.31	0.769	0.942	0.975	0.74						0.895	0.859	0.841	0.718
NCI-H1648										0.641	0.558		0.462	0.452				
NCI-H1650						0.707	0.758	0.563	0.445	0.4	0.495	0.421	0.378	0.473	0.195	0.187	0.185	0.174
NCI-H1703	0.673	0.873	0.561	0.761	1.15	1.23	1.44	1.09	0.556						0.326	0.36	0.314	0.365
NCI-H1793	0.856	0.77	0.471	1.12	1.12	0.581	0.853	0.471	0.347	0.406	0.521		0.486	0.588				
NCI-H1944	1.19	1.14	1	1.24	1.34	0.843	0.908	0.474	0.268	0.489	0.44	0.412	0.426	0.449				
NCI-H2170						0.282	0.317	0.273	0.27	0.521	0.461	0.436	0.434	0.455				
NCI-H2228	0.704	0.659	0.765	0.701	1.2	1.13	1.06	0.687	0.505						1.03	0.911	0.811	0.442
NCI-H2342										0.681	0.706	0.591	0.648	0.786				
SK-MES-1	1.11	1.22	0.809	1.08	1.18	0.471	0.494	0.373	0.357	0.378	0.418	0.304	0.436	0.386				
SW 900										0.449	0.432			0.489				
